SMILES strings stand for the structures. A value given as a limit tells only on which side of the number the result lay.

For this experiment, the target named is T1, human TLR7 (Homo sapiens, UniProt Q9NYK1).
T1 construct: host or cells: HEK293 (HEK-Blue hTLR7)
T1 sequence (Q9NYK1 27-1049): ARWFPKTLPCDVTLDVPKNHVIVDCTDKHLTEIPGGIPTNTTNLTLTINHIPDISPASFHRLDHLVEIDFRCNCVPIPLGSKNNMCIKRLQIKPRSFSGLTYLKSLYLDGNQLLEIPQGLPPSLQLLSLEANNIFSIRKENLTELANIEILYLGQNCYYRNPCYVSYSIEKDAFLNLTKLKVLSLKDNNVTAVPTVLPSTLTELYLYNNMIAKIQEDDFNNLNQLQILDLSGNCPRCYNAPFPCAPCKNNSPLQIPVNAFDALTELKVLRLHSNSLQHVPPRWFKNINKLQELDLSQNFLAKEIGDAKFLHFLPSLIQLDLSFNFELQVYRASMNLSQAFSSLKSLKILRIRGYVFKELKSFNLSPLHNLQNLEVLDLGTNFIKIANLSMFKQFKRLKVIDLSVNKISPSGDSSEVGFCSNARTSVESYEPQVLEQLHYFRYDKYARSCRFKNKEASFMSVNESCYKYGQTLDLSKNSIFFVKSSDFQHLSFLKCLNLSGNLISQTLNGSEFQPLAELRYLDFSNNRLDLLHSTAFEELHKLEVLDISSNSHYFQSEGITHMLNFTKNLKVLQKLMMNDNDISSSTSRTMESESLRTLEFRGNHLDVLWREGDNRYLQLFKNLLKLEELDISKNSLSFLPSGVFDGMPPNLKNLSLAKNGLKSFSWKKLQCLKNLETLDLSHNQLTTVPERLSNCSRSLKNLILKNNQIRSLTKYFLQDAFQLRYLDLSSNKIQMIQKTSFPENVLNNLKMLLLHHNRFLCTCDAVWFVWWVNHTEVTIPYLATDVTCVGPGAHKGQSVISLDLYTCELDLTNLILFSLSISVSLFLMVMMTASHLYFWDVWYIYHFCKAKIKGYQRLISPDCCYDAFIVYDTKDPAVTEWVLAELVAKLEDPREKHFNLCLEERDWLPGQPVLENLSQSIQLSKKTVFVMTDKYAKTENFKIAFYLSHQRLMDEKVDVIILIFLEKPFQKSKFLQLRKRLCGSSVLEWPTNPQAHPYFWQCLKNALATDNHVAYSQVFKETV
Put plainly: HEK293-Blue hTLR7 Reporter Assay (QUANTI-BLUE, SEAP readout). The class given is cell-based. Particulars: HEK-Blue-hTLR7 cells, 24 hrs treatment, Table 1, B1-B232. As for the experimental part:
HEK293-Blue hTLR7 Reporter Assay: HEK-Blue-hTLR7 cell line (Invivogen, Cat. No. hkb-htlr7) was designed so that the expression of the secreted embryonic alkaline phosphatase (SEAP) was induced by activating NF-κ and AP-1 via stimulating human TLR7 with TLR7 agonists. HEK-Blue-hTLR7 cells were seeded at a density of 4×10^4 cells/well in a volume of 180 μL in a 96-well plate in DMEM (Cat. No. 11965-092) supplemented with 10% (v/v) heat-inactivated fetal bovine serum (FBS) (Gibco, 10099-1441), 100 U/ml penicillin and 100 μg/ml streptomycin (Gibco, 15140122) containing 50 U/mL penicillin, […] and 10% (v/v) heat-inactivated fetal bovine serum. The cells were settled for 5 hrs, then treated with increasing amounts of tested compounds at 37° C. for 24 hrs. Then 20 μL of the supernatant from each well was incubated with 180 μL Quanti-blue substrate solution at 37° C. for 10-30 mins before the activity of the SEAP was determined at 620-655 nm using a spectrophotometer. The EC50 value for each compound was calculated with GraphPad Prism software using the sigmoidal dose-response function.
Regarding `CCCCOc1nc(N)c2ncc(Cc3cnc(C4CCNCC4)c(OC)c3)n2n1` [Compound B17, 2-butoxy-7-((5-methoxy-6-(piperidin-4-yl)pyridin-3-yl)methyl)imidazo[2,1-f][1,2,4]triazin-4-amine], the concentration for a half-maximal effect (EC50) – broadly, the midpoint of the concentration-response curve – came out at 0.149 µM. `CCCCNc1nc(N)c2ncc(Cc3ccc(C4CCNCC4)cc3)n2n1` [Compound B18, N2-butyl-7-(4-(piperidin-4-yl)benzyl)imidazo[2,1-f][1,2,4]triazine-2,4-diamine] gave an EC50 of 0.171 µM.

Compound `CCCCOc1nc(N)c2ncc(Cc3ccc(C4CCNCC4)nc3)n2n1` [Compound B19, 2-butoxy-7-((6-(piperidin-4-yl)pyridin-3-yl)methyl)imidazo[2,1-f][1,2,4]triazin-4-amine] returned an EC50 of 0.227 µM.

Compound `CCCCOc1nc(N)c2ncc(Cc3ccc(C4CCCNC4)cc3)n2n1` (stereo not drawn) [Compound B20, 2-butoxy-7-(4-(piperidin-3-yl)benzyl)imidazo[2,1-f][1,2,4]triazin-4-amine] showed a half-maximal effective concentration (EC50) of 7.99 µM. The figure for `Cc1cc(Cc2cnc3c(N)nc(OCCC(C)C)nn23)cnc1N1CCNCC1` [Compound B22, 2-(isopentyloxy)-7-((5-methyl-6-(piperazin-1-yl)pyridin-3-yl)methyl)imidazo[2,1-f][1,2,4]triazin-4-amine] is 0.496 µM; for `CCCCCOc1nc(N)c2ncc(Cc3cnc(N4CCNCC4)c(C)c3)n2n1` [Compound B23, 7-((5-methyl-6-(piperazin-1-yl)pyridin-3-yl)methyl)-2-(pentyloxy)imidazo[2,1-f][1,2,4]triazin-4-amine] it is 0.487 µM. For `CCCCOc1nc(N)c2ncc(Cc3cnc(N4CCN(C(=O)CN)CC4)c(C)c3)n2n1` [Compound B24, 2-amino-1-(4-(5-((4-amino-2-butoxyimidazo[2,1-f][1,2,4]triazin-7-yl)methyl)-3-methylpyridin-2-yl)piperazin-1-yl)ethan-1-one], a half-maximal response (EC50) required 0.21 µM. The figure for `Cc1cc(Cc2cnc3c(N)nc(OCCOc4ccccc4)nn23)cnc1N1CCNCC1` [Compound B25, 7-((5-methyl-6-(piperazin-1-yl)pyridin-3-yl)methyl)-2-(2-phenoxyethoxy)imidazo[2,1-f][1,2,4]triazin-4-amine] is over 10 µM; for `CCCCOc1nc(N)c2ncc(Cc3ccc(N4CCNCC4)c(OCC)c3)n2n1` [Compound B26, 2-butoxy-7-(3-ethoxy-4-(piperazin-1-yl)benzyl)imidazo[2,1-f][1,2,4]triazin-4-amine] it is 0.295 µM. Regarding `CCCCOc1nc(N)c2ncc(Cc3ccc(N4CCNCC4)c(OC(F)(F)F)c3)n2n1` [Compound B27, 2-butoxy-7-(4-(piperazin-1-yl)-3-(trifluoromethoxy)benzyl)imidazo[2,1-f][1,2,4]triazin-4-amine], the concentration giving a half-maximal response (EC50) turned out to be 0.971 µM. Under `Cc1cc(Cc2cnc3c(N)nc(O)nn23)cnc1N1CCNCC1` [Compound B29, 4-amino-7-((5-methyl-6-(piperazin-1-yl)pyridin-3-yl)methyl)imidazo[2,1-f][1,2,4]triazin-2-ol] stands over 10 µM; under `Cc1cc(Cc2cnc3c(N)nc(OCCc4ccccc4)nn23)cnc1N1CCNCC1` [Compound B30, 7-((5-methyl-6-(piperazin-1-yl)pyridin-3-yl)methyl)-2-phenethoxyimidazo[2,1-f][1,2,4]triazin-4-amine], over 10 µM. As to `Cc1cc(Cc2cnc3c(N)nc(OCCCc4ccccc4)nn23)cnc1N1CCNCC1` [Compound B31, 7-((5-methyl-6-(piperazin-1-yl)pyridin-3-yl)methyl)-2-(3-phenylpropoxy)imidazo[2,1-f][1,2,4]triazin-4-amine], the EC50 is over 10 µM.

Regarding `CCCCOc1nc(N)c2ncc(Cc3cnc(N4CCN(C(=O)CNC)CC4)c(C)c3)n2n1` [Compound B32, 1-(4-(5-((4-amino-2-butoxyimidazo[2,1-f][1,2,4]triazin-7-yl)methyl)-3-methylpyridin-2-yl)piperazin-1-yl)-2-(methylamino)ethan-1-one], a half-maximal response (EC50) required 0.066 µM. Under `CCCCOc1nc(N)c2ncc(Cc3cc(C)c(N4CCNCC4)cn3)n2n1` [Compound B33, 2-butoxy-7-((4-methyl-5-(piperazin-1-yl)pyridin-2-yl)methyl)imidazo[2,1-f][1,2,4]triazin-4-amine] stands 0.218 µM. Compound `CCCCOc1nc(N)c2ncc(Cc3cnc(N4CCCCC4)c(C)c3)n2n1` [Compound B34, 2-butoxy-7-((5-methyl-6-(piperidin-1-yl)pyridin-3-yl)methyl)imidazo[2,1-f][1,2,4]triazin-4-amine] came in with an EC50 of over 10 µM.

`CCCCOc1nc(N)c2ncc(Cc3cnc(N4CCCCCC4)c(C)c3)n2n1` [Compound B35, 7-((6-(azepan-1-yl)-5-methylpyridin-3-yl)methyl)-2-butoxyimidazo[2,1-f][1,2,4]triazin-4-amine]: the EC50 is over 10 µM. The figure for `CCCCOc1nc(N)c2ncc(Cc3ccc(N4CCNCC4)c(C)c3)n2n1` [Compound B36, 2-butoxy-7-(3-methyl-4-(piperazin-1-yl)benzyl)imidazo[2,1-f][1,2,4]triazin-4-amine] is 0.182 µM; for `CCCCOc1nc(N)c2ncc(Cc3cnc(N4CCN(C(=O)CCN(C)C)CC4)c(C)c3)n2n1` [Compound B37, 1-(4-(5-((4-amino-2-butoxyimidazo[2,1-f][1,2,4]triazin-7-yl)methyl)-3-methylpyridin-2-yl)piperazin-1-yl)-3-(dimethylamino)propan-1-one] it is 0.148 µM. Under `CCCCOc1nc(N)c2ncc(Cc3cnc(N4CC5CCCCC5C4)c(C)c3)n2n1` (stereo not drawn) [Compound B38, 2-butoxy-7-((5-methyl-6-(octahydro-2H-isoindol-2-yl)pyridin-3-yl)methyl)imidazo[2,1-f][1,2,4]triazin-4-amine] stands over 10 µM; under `CCCCOc1nc(N)c2ncc(Cc3cnc(N4CCCNCC4)c(C)c3)n2n1` [Compound B39, 7-((6-(1,4-diazepan-1-yl)-5-methylpyridin-3-yl)methyl)-2-butoxyimidazo[2,1-f][1,2,4]triazin-4-amine], 0.465 µM; under `CCCCOc1nc(N)c2ncc(Cc3cnc(N4CCN(C(=O)CN5CCNCC5)CC4)c(C)c3)n2n1` [Compound B40, 1-(4-(5-((4-amino-2-butoxyimidazo[2,1-f][1,2,4]triazin-7-yl)methyl)-3-methylpyridin-2-yl)piperazin-1-yl)-2-(piperazin-1-yl)ethan-1-one], 0.908 µM.

The compound `CCCCOc1nc(N)c2ncc(Cc3cnc(N4CCN(C(=O)C5CNCCN5)CC4)c(C)c3)n2n1` (stereo not drawn) [Compound B41, (4-(5-((4-amino-2-butoxyimidazo[2,1-f][1,2,4]triazin-7-yl)methyl)-3-methylpyridin-2-yl)piperazin-1-yl)(piperazin-2-yl)methanone] returned a concentration for a half-maximal effect (EC50) of 0.6 µM.

In the case of `Cc1cc(Cc2cnc3c(N)nc(OCCn4ccnc4)nn23)cnc1N1CCNCC1` [Compound B42, 2-(2-(1H-imidazol-1-yl)ethoxy)-7-((5-methyl-6-(piperazin-1-yl)pyridin-3-yl)methyl)imidazo[2,1-f][1,2,4]triazin-4-amine], the EC50 was over 10 µM. Under `CCCCCCCCOc1nc(N)c2ncc(Cc3cnc(N4CCNCC4)c(C)c3)n2n1` [Compound B43, 7-((5-methyl-6-(piperazin-1-yl)pyridin-3-yl)methyl)-2-(octyloxy)imidazo[2,1-f][1,2,4]triazin-4-amine] stands over 10 µM. Under `C=CC(=O)N1CCN(c2ncc(Cc3cnc4c(N)nc(OCCCC)nn34)cc2C)CC1` [Compound B44, 1-(4-(5-((4-amino-2-butoxyimidazo[2,1-f][1,2,4]triazin-7-yl)methyl)-3-methylpyridin-2-yl)piperazin-1-yl)prop-2-en-1-one] stands 6.66 µM; under `CCCCOc1nc(N)c2ncc(Cc3ccc(N4CCNCC4)c(OC)c3)n2n1` [Compound B45, 2-butoxy-7-(3-methoxy-4-(piperazin-1-yl)benzyl)imidazo[2,1-f][1,2,4]triazin-4-amine], 0.418 µM.

(Values after patent publication US12612407B2, “Imidazo[2,1-f][1,2,4]triazin-4-amine derivatives as TLR7 agonist” (BEIGENE, LTD., priority 2020, dated 2026).)
